According to patent publication US20110053773A1, “METHODS OF IMPROVING NUTRITIONAL VALUE OF PLANTS” (UNIVERSITY OF TENNESSEE RESEARCH FOUNDATION, priority 2009, published 2011):

Legend:
Assay type in all cases: in vivo
[1] = system: sweet corn cultivars 'Merit', 'Temptation', 'Incredible'; assay: Kernel carotenoids of sweet corn after mesotrione and atrazine (Example 3); parameters: Kernel carotenoids: Lutein / Kernel carotenoids: Zeaxanthin: unit not given here; details: mesotrione 105, atrazine 560 g ai/ha
Procedure: (§1) Studies were conducted in a field in Knoxville, Tenn. to ascertain the growth, stress tolerance and nutritional quality differences following postemergence applications of herbicides mesotrione and atrazine, alone and in mixtures together, on the young sweet corn cultivars: ‘Merit’ (yellow-kernel sensitive genotype), ‘Temptation’ (bicolor tolerant genotype), and ‘Incredible’ (yellow-kernel moderately sensitive genotype).
(§2) Herbicide treatments were applied as follows: 1) untreated control; 2) mesotrione (meso) at 105 g ai/ha EPOST; 3) mesotrione at 105+atrazine at 560 g ai/ha EPOST; 4) atrazine at 560 g ai/ha EPOST; 5) mesotrione at 105 g ai/ha LPOST; 6) mesotrione at 105+atrazine at 560 g ai/ha LPOST; and 7) atrazine at 560 g ai/ha LPOST. Visual ratings of plant growth were taken during season, and kernels for carotenoids were measured at harvest.

[2] = system: sweet corn (Zea mays var. rugosa) cultivar 'Incredible'; assay: Content analysis of sweet corn ears: crude protein, amino acids, detergent fiber, fatty acids, minerals (Example 1); details: POST at b59 rates; every treatment incl. check also got atrazine 560 g ai/ha + COC 1% v/v; relative to treated check (atrazine), check=0
Excerpt: Herbicide treatments were applied in a water carrier at 23 gallons of solution per acre on a field site near Knoxville, Tenn. and Painter, Va. Treatments include the following: 1) nicosulfuron at 35 g ai/ha (Accent); 2) mesotrione at 105 g ai/ha (Callisto); 3) nicosulfuron at 35 g ai/ha+mesotrione at 105 g ai/ha (Callisto+Accent); 4) tembotrione at 92 g ai/ha+isoxadifen-ethyl at 46 g ai/ha (Laudis); 5) topramezone at 15 g ai/ha (Impact); 6) nicosulfuron at 35 g ai/ha+isoxadifen-ethyl at 9 g ai/ha (Accent Q); 7) nicosulfuron at 35 g ai/ha+isoxadifen-ethyl at 9 g ai/ha+topramezone at 15 g ai/ha (Accent Q+Impact); 8) nicosulfuron 35 g ai/ha+isoxadifen-ethyl at 9 g ai/ha+mesotrione at 105 g ai/ha (Accent Q+Callisto); 9) treated check (atrazine or Aatrex). All treatments included a PRE application of atrazine plus metolachlor in order to maintain weed free conditions. In addition, all POST treatments (including the treated check) included atrazine at 560 g ai/ha and crop oil concentrate at 1% v/v. […] Sweet corn was harvested from the center two rows of each four row plot and weighed in the husk.

[3] = system: sweet corn cultivars 'Merit', 'Temptation', 'Incredible'; assay: Visual leaf tissue bleaching of sweet corn (Example 3, Table 9); details: mesotrione 105, atrazine 560 g ai/ha
Procedure: as §1, §2

[4] = 'Incredible' moderately sensitive genotype, EPOST
[5] = 'Incredible' moderately sensitive genotype, LPOST
[6] = 'Merit' sensitive genotype, EPOST
[7] = 'Merit' sensitive genotype, LPOST

SMILES: CCNc1nc(Cl)nc(NC(C)C)n1 [Atrazine*AATREX, atrazine]
- Lutein % change from untreated control [1, 4]: +7.6%
- Zeaxanthin % change from untreated control [1, 4]: −0.0%
- Kernel carotenoids: Lutein ([1]; 'Incredible' moderately sensitive genotype, EPOST, untreated 0.328): 0.353
- Kernel carotenoids: Zeaxanthin ([1]; 'Incredible' moderately sensitive genotype, EPOST, untreated 0.448): 0.447
- Lutein % change from untreated control [1, 5]: +6.0%
- Zeaxanthin % change from untreated control [1, 5]: +1.3%
- Kernel carotenoids: Lutein ([1]; 'Incredible' moderately sensitive genotype, LPOST, untreated 0.328): 0.347
- Kernel carotenoids: Zeaxanthin ([1]; 'Incredible' moderately sensitive genotype, LPOST, untreated 0.448): 0.454
- Kernel carotenoids: Lutein [1, 6]: 0.692
- Lutein % change from untreated control [1, 6]: +9.5%
- Zeaxanthin % change from untreated control [1, 6]: +10.8%
- Kernel carotenoids: Zeaxanthin ([1]; 'Merit' sensitive genotype, EPOST, untreated 0.509): 0.564
- Kernel carotenoids: Lutein [1, 7]: 0.664
- Lutein % change from untreated control [1, 7]: +5.1%
- Zeaxanthin % change from untreated control [1, 7]: +8.1%
- Kernel carotenoids: Zeaxanthin ([1]; 'Merit' sensitive genotype, LPOST, untreated 0.509): 0.550
- Acid DF [2]: 0 % of check
- Alanine [2]: 0 % of check
- Amino Acid [2]: 0 % of check
- Aspartic ac [2]: 0 % of check
- Cysteine [2]: 0 % of check
- Glutamic ac [2]: 0 % of check
- Glycine [2]: 0 % of check
- Isoleucine [2]: 0 % of check
- Leucine [2]: 0 % of check
- Lysine [2]: 0 % of check
- Methionine [2]: 0 % of check
- Neutral DF [2]: 0 % of check
- Proline [2]: 0 % of check
- Protein [2]: 0 % of check
- Threonine [2]: 0 % of check
- Valine [2]: 0 % of check
- calcium [2]: 0 % of check
- copper [2]: 0 % of check
- iron [2]: 0 % of check
- magnesium [2]: 0 % of check
- manganese [2]: 0 % of check
- mon fattyac [2]: 0 % of check
- phosphorous [2]: 0 % of check
- polyfattyac [2]: 0 % of check
- potassium [2]: 0 % of check
- sat fattyac [2]: 0 % of check
- sodium [2]: 0 % of check
- tot fattyac [2]: 0 % of check
- zinc [2]: 0 % of check
- Leaf Tissue Visual Bleaching (%) ([3]; ‘Incredible’, 7 DAT, EPOST): 13%
- Leaf Tissue Visual Bleaching (%) ([3]; ‘Incredible’, 7 DAT, LPOST): 0%
- Leaf Tissue Visual Bleaching (%) ([3]; ‘Incredible’, 14 DAT, EPOST): 13%
- Leaf Tissue Visual Bleaching (%) ([3]; ‘Incredible’, 14 DAT, LPOST): 0%
- Leaf Tissue Visual Bleaching (%) ([3]; ‘Incredible’, 21 DAT, EPOST): 0%
- Leaf Tissue Visual Bleaching (%) ([3]; ‘Incredible’, 21 DAT, LPOST): 0%
- Leaf Tissue Visual Bleaching (%) ([3]; ‘Merit’, 7 DAT, EPOST): 3%
- Leaf Tissue Visual Bleaching (%) ([3]; ‘Merit’, 7 DAT, LPOST): 0%
- Leaf Tissue Visual Bleaching (%) ([3]; ‘Merit’, 14 DAT, EPOST): 2%
- Leaf Tissue Visual Bleaching (%) ([3]; ‘Merit’, 14 DAT, LPOST): 0%
- Leaf Tissue Visual Bleaching (%) ([3]; ‘Merit’, 21 DAT, EPOST): 0%
- Leaf Tissue Visual Bleaching (%) ([3]; ‘Merit’, 21 DAT, LPOST): 0%
